Assay results from patent US11472862B2, “IL13Rα2 peptide and its uses” (priority 2017, dated 2022).
Non-standard residues stand in square brackets, D forms with d. No end group written: not given here.

Key:
KM12SM cells [1] = assay: Cell adhesion assay to Matrigel; format: cell-based, human; conditions: with IL-13, peptide 1 μg/ml
Description: (§1) Recombinant human IL13 was used at […] (13) and was purchased from PeproTech. IL13Rα2-derived peptides (IL13Rα2D1: GSETWKTIITKN, SEQ ID NO: 3; IL13Rα2D1S: WKTIITKN, SEQ ID NO: 1; IL13Rα2Nter: FEIVDPGY, SEQ ID NO: 14; IL13Rα2Cter WSIPLGPI, SEQ ID NO: 15; IL13Rα2D1S-1A: WATIITKN, SEQ ID NO: 16; IL13Rα2D1S-2A WKAIITKN, SEQ ID NO: 17; IL13Rα2D1S-3A WKTAITKN, SEQ ID NO: 18; IL13Rα2D1S-4A WKTIATKN, SEQ ID NO: 19; IL13Rα2D1S-5A WKTIIAKN, SEQ ID NO: 20; IL13Rα2D1S-6A WKTIITAN, SEQ ID NO: 21) were synthesized using solid phase chemistry with a Focus XC instrument (AAPPtec). The enantio version D-IL13Rα2D1 (D-D1) peptide (GSETWKTIITKN, SEQ ID NO: 3) composed entirely by D-amino acids was purchased from Proteogenix (Schiltigheim, France). […]
(§2) Binding of D1 peptide to IL-13 was monitored by surface plasmon resonance on a BIAcore 3000 instrument (BIAcore Inc, Switzerland). […] The interaction between D1 peptide and the immobilized IL13 was determined by changes in the RU at different D1 concentrations. […] Cell proliferation was determined by absorbance at 560 nm and comparison with control cells collected ab initium. […] Bound cells were lysed with 1% SDS in PBS, and the extent of the adhesion was quantified using a fluorescence analyzer (POLARstar Galaxy, BMG Labtechnologies). […] Effective migration speed was calculated from the distance covered by cells in 24 h in each side of the wound. […]

KM12SM cells [2] = assay: Cell invasion assay through Matrigel; format: cell-based, human; conditions: with IL-13, peptide 1 μg/ml, 48 h
Description: as §1, §2

KM12SM cells [3] = assay: MTT proliferation assay; format: cell-based, human; conditions: with IL-13, peptide 1 μg/ml, 48 h
Description: as §1, §2

KM12SM cells [4] = assay: Metastasis experiment in nude mice, Kaplan-Meier survival after intrasplenic inoculation; format: in vivo, Swiss nude mice
Description: (§3) FIG. 6. D1 and D-D1 peptides increase the survival of mice inoculated with metastatic tumor cells and inhibits glioblastoma xenografts. (A) Liver homing experiment. Metastatic KM12SM cells were treated with the IL13 and/or D1 peptide and inoculated in spleen of nude mice. […] (C) 10^7 U251 cells were inoculated subcutaneously into the flanks of mice. Eleven days after cell inoculation, when tumours reached a size of 100 mm^3, mice were treated with D-D1 peptide (3 μg/100 μL of PBS) subcutaneously or with saline solution in a total of 7 doses during 15 days. Tumours were measured every 2-3 days. **p<0.01 vs control.
Binding of D1 peptide to IL-13 was monitored by surface plasmon resonance on a BIAcore 3000 instrument (BIAcore Inc, Switzerland). IL-13 was covalently amino coupled to a CM-5 sensor chip. An immobilization level of 7700 RU was obtained. A nonderivatized flow cell was used as a control. The interaction between D1 peptide and the immobilized IL13 was determined by changes in the RU at different D1 concentrations. Cell Signaling Analysis Cancer cells were incubated 3 h in DMEM without serum, detached with 2 mM EDTA, washed and treated with IL-13 (PeproTech) (10 ng/ml) for different times in presence or absence of IL13Rα2D1 peptide. Then, cells were lysed with lysis buffer (1% Igepal, 50 mM Tris-HCl, 100 mM NaCl, 2 mM MgCl2, 10% glycerol, protease inhibitors (Complete Mini, Roche) and phosphatase inhibitor cocktails 2 and 3 (Sigma-Aldrich)). Protein extracts (60 μg) were separated in SDS-PAGE and transferred to nitrocellulose membranes, which were incubated with primary antibodies, washed and incubated with HRP-conjugated secondary antibodies (Sigma-Aldrich). […] Proliferation Assays Cancer cells were seeded at 1×10^4 cells/well on 96-well plates and were incubated for 48 h at 37° C. in DMEM with 0.5% serum in presence of IL-13 (10 ng/ml) and the indicated peptides, followed by 1 h incubation with Thyazolyl Blue Tretrazolium Bromide (MTT) (0.6 mg/mL) (Sigma-Aldrich). Cell proliferation was determined by absorbance at 560 nm and comparison with control cells collected ab initium. Cell Adhesion Assays Cancer cells were starved for 3 h, labeled with BCECF-AM (Molecular Probes), detached with EDTA/PBS and incubated in DMEM in the presence of IL-13 and the indicated peptides for 10 min at 37° C. Then, 6×10^4 cells in 100 μL were added to 96-well plates previously coated with Matrigel (0.4 μg/mm^2), and the plates were incubated for 25 min at 37° C. Subsequently, non-adhered cells were removed by three washes with DMEM. Bound cells were lysed with 1% SDS in PBS, and the extent of the adhesion was quantified using a fluorescence analyzer (POLARstar Galaxy, BMG Labtechnologies). Wound Healing Assays Cancer cells were cultured to confluence in Matrigel-coated plates (0.4 μg/mm^2), and a 1 mm-wide wound was done across the monolayer, which was incubated in serum-free medium alone or with IL-13 (10 ng/mL), in the presence or absence of the indicated peptides. Pictures were taken immediately and after 24 h culture at 37° C. after the injury. Effective migration speed was calculated from the distance covered by cells in 24 h in each side of the wound. Invasion Assays For Matrigel invasion assays, 6×10^4 cells were loaded onto […] pore-size filters coated with […] of Matrigel (1:3 dilution; BD Biosciences) in Transwell plates (Costar) in presence of the indicated peptides. The lower compartment of the invasion chamber was filled with IL-13 (10 ng/mL). After 48 h, non-invading cells were removed from the upper surface of the filter, and cells that migrated through the filter were fixed with 4% paraformaldehyde (Sigma-Aldrich), stained with crystal violet and counted under a microscope. […] Swiss nude mice (Charles River) (n=5 per condition) were inoculated in the spleen with 1.5×10^6 KM12SM cells in 0.1 mL PBS in presence or absence of the indicated peptides (1 μg/mL). A day after inoculation, mice were subjected to removal of the spleen. […]

[5] = system: U251 glioblastoma xenografts; assay: Glioblastoma xenograft tumour growth; format: in vivo, mice; conditions: 3 μg/100 μL PBS subcutaneously, 7 doses during 15 days, start at 100 mm^3; p<0.01 vs control
Description: as §3
Additionally, the capacity of the D-D1 peptide to inhibit tumour growth in U251 glioblastoma xenografts was tested. For glioblastoma xenografts, 10^7 U251 cells were inoculated subcutaneously into the flanks of mice. Eleven days after cell inoculation, when tumours reached a size of 100 mm^3, mice were treated with D-D1 peptide (3 μg/100 μL of PBS) subcutaneously or with saline solution in a total of 7 doses during 15 days. Tumours were measured every 2-3 days.

GSETWKTIITKN (G[dS][dE][dT][dW][dK][dT][dI][dI][dT][dK][dN]) [D-D1 peptide]
Inhibition of IL-13-stimulated cell adhesion to Matrigel (KM12SM cells [1]): inhibit cell adhesion, invasion and proliferation | Inhibition of IL-13-stimulated cell invasion through Matrigel (KM12SM cells [2]): inhibit cell adhesion, invasion and proliferation | Inhibition of IL-13-stimulated cell proliferation (MTT) (KM12SM cells [3]): inhibit cell adhesion, invasion and proliferation | Mice surviving the experimental endpoint, without further treatment (KM12SM cells [4]; KM12SM intrasplenic, cells with peptide 1 μg/ml only, n=5 per condition): one | Metastatic lesions in surviving mice, without further treatment (KM12SM cells [4]; KM12SM intrasplenic, cells with peptide only): without lesions | Mice surviving the experimental endpoint, with peptide treatment (KM12SM cells [4]; KM12SM intrasplenic, cells with peptide plus 7 i.v. doses of 3 μg, n=5 per condition): two | Metastatic lesions at necropsy in surviving mice, with peptide treatment (KM12SM cells [4]; KM12SM intrasplenic, cells with peptide plus i.v. treatment): no metastatic lesions at the necropsy | Mouse survival, cells inoculated with peptide plus intravenous peptide treatment (KM12SM cells [4]; KM12SM intrasplenic, peptide 1 μg/ml with the cells, then 7 i.v. doses of 3 μg over 2 weeks, n=5): remarkable increase in survival | Mouse survival, cells inoculated with peptide, without further treatment (KM12SM cells [4]; KM12SM intrasplenic, peptide 1 μg/ml with the cells, n=5): significant increase | Change of survival of treated mice (KM12SM cells [4]; KM12SM metastasis model, treated mice versus control): more than doubling the survival | Tumour growth of U251 xenografts [5]: significant growth arrest accompanied by a regression in the tumour size
